Laboratory results: patent publication US20070015823A1, “Ambruticin VS compounds” (priority 2004, published 2007)
Converted amounts (≈) assume the structure as drawn. Read-outs that look alike come from different tables or passages of the source.

Experiments:
A. fumigatus ATCC 204305 = assay: Broth microdilution antifungal susceptibility, NCCLS M38-A; type: cell-based, Aspergillus fumigatus; details: minimal concentration inhibiting >95% growth; average of at least two assays (except I-l and I-x)
A. flavus ATCC 204304 = assay: as above; type: cell-based, Aspergillus flavus; details: minimal concentration inhibiting >95% growth; average of at least two assays (except I-l and I-x)
Histoplasma capsulatum = type: cell-based
Blastomyces dermatitidis = assay: Broth microdilution antifungal susceptibility, NCCLS M38-A; type: cell-based
C. immitis = assay: microbe, parasite or virus in culture; type: cell-based, Coccidioides immitis
Candida albicans = details: Candida albicans
Trichophyton rubrum = assay: Dermatophyte broth microdilution, NCCLS M38-A; type: cell-based
[1] = tested on: Trichophyton interdigitale; assay: Dermatophyte broth microdilution, NCCLS M38-A; type: cell-based
[2] = tested on: Trichophyton mentagrophytes; assay: Dermatophyte broth microdilution, NCCLS M38-A; type: cell-based
Cryptococcus neoformans = assay: Broth microdilution antifungal susceptibility, NCCLS M38-A; details: 50% growth inhibition, range = minimum and maximum of multiple assays; for MIC C. neoformans 97-14: strain 97-14; for MIC C. neoformans 11239: strain 11239; for MIC C. neoformans 11240: strain 11240
Microsporum gypseum = assay: Dermatophyte broth microdilution, NCCLS M38-A; type: cell-based
Microsporum canis = assay: Dermatophyte broth microdilution, NCCLS M38-A; type: cell-based
Epidermophyton floccosum = assay: Dermatophyte broth microdilution, NCCLS M38-A; type: cell-based

Compound	MIC0 A. fumigatus ATCC 204305 (A. fumigatus ATCC 204305)	MIC0 A. flavus ATCC 204304 (A. flavus ATCC 204304)	MIC0 Tr (Trichophyton rubrum)	MIC0 Ti [1]	MIC0 Tm [2]	MIC C. neoformans 97-14 (Cryptococcus neoformans)	MIC C. neoformans 11239 (Cryptococcus neoformans)	MIC C. neoformans 11240 (Cryptococcus neoformans)	MIC0 Mg (Microsporum gypseum)	MIC0 Mc (Microsporum canis)	MIC0 Ef (Epidermophyton floccosum)	further results
CC[C@H]1O[C@@H](/C(C)=C/[C@H](C)/C=C/[C@H]2[C@@H](C)[C@@H]2/C=C/[C@@H]2O[C@H](CC(=O)O)C[C@H](NC)[C@H]2O)CC=C1C [Ambruticin VS-4, (5S,6R)-5-(methylamino)-6-hydroxypolyangioic acid, reference compound]	0.60 µg/mL	0.47 µg/mL	–	–	–	–	–	–	–	–	–	MIC2 H. capsulatum 05-959 (Histoplasma capsulatum): ≦0.15 μg/mL; MIC2 H. capsulatum 05-1097 (Histoplasma capsulatum): ≦0.15 μg/mL; MIC2 H. capsulatum 05-1159 (Histoplasma capsulatum): ≦0.15 μg/mL; MIC2 B. dermatitidis 05-106 (Blastomyces dermatitidis): ≦0.15 μg/mL; MIC2 B. dermatitidis 05-186 (Blastomyces dermatitidis): ≦0.15 μg/mL; MIC2 B. dermatitidis 05-1291 (Blastomyces dermatitidis): ≦0.15 μg/mL; MIC2 C. immitis 05-469 (C. immitis): ≦0.15 μg/mL; MIC2 C. immitis 05-955 (C. immitis): ≦0.15 μg/mL; MIC2 C. immitis 05-1387 (C. immitis): ≦0.15 μg/mL
CC[C@H](C)C[C@H](C)CCCCCCCCC(=O)N[C@H]1C[C@@H](O)[C@@H](NCCN)NC(=O)[C@@H]2[C@@H](O)CCN2C(=O)[C@H]([C@H](O)CCN)NC(=O)[C@H]([C@H](O)[C@@H](O)c2ccc(O)cc2)NC(=O)[C@@H]2C[C@@H](O)CN2C(=O)[C@H]([C@@H](C)O)NC1=O [Caspofungin, reference compound]	–	–	–	–	–	–	–	–	–	–	–	MIC (Candida albicans; read-out: MIC C. albicans 24433): 2 µg/mL (≈ 1.83 µM); MIC (Candida albicans; read-out: MIC C. albicans 90028): 2 µg/mL (≈ 1.83 µM)
CC[C@H]1O[C@@H](/C(C)=C/[C@H](C)/C=C/[C@H]2[C@@H](C)[C@@H]2/C=C/[C@@H]2O[C@H](CC(=O)O)C[C@H](N(C)CC)[C@H]2O)CC=C1C [I-a, (5S,6R)-5-(N-ethyl-methylamino)-6-hydroxypolyangioic acid]	2.0 µg/mL	2.0 µg/mL	2 µg/mL	2 µg/mL	5.65 µg/mL	1 µg/mL (≈ 1.94 µM)	2 µg/mL (≈ 3.88 µM)	2 µg/mL (≈ 3.88 µM)	2.51 µg/mL	1.41 µg/mL	4 µg/mL	–
CC[C@H]1O[C@@H](/C(C)=C/[C@H](C)/C=C/[C@H]2[C@@H](C)[C@@H]2/C=C/[C@@H]2O[C@H](CC(=O)O)C[C@H](N(C)C(C)=O)[C@H]2O)CC=C1C [I-i, (5S,6R)-5-[N-methyl(acetamido)]-6-hydroxypolyangioic acid]	32 µg/mL	>32 µg/mL	>8 µg/mL	>8 µg/mL	>8 µg/mL	–	–	–	>8 µg/mL	>8 µg/mL	>8 µg/mL	–
CC[C@H]1O[C@@H](/C(C)=C/[C@H](C)/C=C/[C@H]2[C@@H](C)[C@@H]2/C=C/[C@@H]2O[C@H](CC(=O)O)C[C@H](NC3CCC3)[C@H]2O)CC=C1C [I-jj, (5S,6R)-5-(cyclobutylamino)-6-hydroxypolyangioic acid]	6.67 µg/mL	5.33 µg/mL	3.17 µg/mL	2.51 µg/mL	>8 µg/mL	0.125 µg/mL (≈ 0.237 µM)	2 µg/mL (≈ 3.79 µM)	2 µg/mL (≈ 3.79 µM)	1.25 µg/mL	8 µg/mL	5.65 µg/mL	–
CC[C@H]1O[C@@H](/C(C)=C/[C@H](C)/C=C/[C@H]2[C@@H](C)[C@@H]2/C=C/[C@@H]2O[C@H](CC(=O)O)C[C@H](NC(C)C)[C@H]2O)CC=C1C [I-kk, (5S,6R)-5-(isopropylamino)-6-hydroxypolyangioic acid]	1 µg/mL	1.1 µg/mL	–	–	–	0.25 µg/mL (≈ 0.485 µM)	0.125 µg/mL (≈ 0.242 µM)	0.0625 µg/mL (≈ 0.121 µM)	–	–	–	MIC H. capsulatum G217B (Histoplasma capsulatum): <0.19 µg/mL; MIC H. capsulatum GS20 (Histoplasma capsulatum): <0.19 µg/mL; MIC B. dermatitidis Gu (Blastomyces dermatitidis): 12.5 µg/mL (≈ 24.2 µM); MIC B. dermatitidis Kr (Blastomyces dermatitidis): >12.5 µg/mL; MIC B. dermatitidis V (Blastomyces dermatitidis): >12.5 µg/mL
CCC(=O)N[C@H]1C[C@@H](CC(=O)O)O[C@@H](/C=C/[C@H]2[C@H](C)[C@@H]2/C=C/[C@@H](C)/C=C(\C)[C@H]2CC=C(C)[C@@H](CC)O2)[C@@H]1O [I-l, (5S,6R)-5-propionamido-6-hydroxypolyangioic acid]	8 µg/mL	16 µg/mL	1.58 µg/mL	0.79 µg/mL	5.66 µg/mL	–	–	–	0.79 µg/mL	1.41 µg/mL	2.82 µg/mL	–
CC[C@H]1O[C@@H](/C(C)=C/[C@H](C)/C=C/[C@H]2[C@@H](C)[C@@H]2/C=C/[C@@H]2O[C@H](CCO)C[C@H](N(C)C(C)C)[C@H]2O)CC=C1C [I-oo, (5S,6R)-5-(N-isoproyl-methylamino)polyangi-1,6-diol]	32 µg/mL	2 µg/mL	–	–	–	–	–	–	–	–	–	MIC H. capsulatum G217B (Histoplasma capsulatum): <0.19 µg/mL; MIC H. capsulatum GS20 (Histoplasma capsulatum): <0.19 µg/mL; MIC B. dermatitidis Gu (Blastomyces dermatitidis): 0.39 µg/mL (≈ 0.756 µM); MIC B. dermatitidis Kr (Blastomyces dermatitidis): >12.5 µg/mL; MIC B. dermatitidis V (Blastomyces dermatitidis): >12.5 µg/mL
CC[C@H]1O[C@@H](/C(C)=C/[C@H](C)/C=C/[C@H]2[C@@H](C)[C@@H]2/C=C/[C@@H]2O[C@H](CC(=O)N3CCC3)C[C@H](N(C)C)[C@H]2O)CC=C1C [I-pp, (5S,6R)-1-(azetidin-1-yl)-5-dimethylamino-6-hydroxypolyangi-1-one]	4 µg/mL	2 µg/mL	–	–	–	–	–	–	–	–	–	MIC0 Tr (Trichophyton rubrum; Trichophyton rubrum (3 strains), 95% growth inhibition): ¼; MIC0 Ti ([1]; Trichophyton interdigitale (3 strains), 95% growth inhibition): 5.03 µg/mL; MIC0 Tm ([2]; Trichophyton mentagrophytes (2 strains), 95% growth inhibition): 4 µg/mL; MIC0 Mg (Microsporum gypseum; Microsporum gypseum (3 strains), 95% growth inhibition): 2.51 µg/mL; MIC0 Mc (Microsporum canis; Microsporum canis (2 strains), 95% growth inhibition): 1 µg/mL; MIC0 Ef (Epidermophyton floccosum; Epidermophyton floccosum (2 strains), 95% growth inhibition): 2.82 µg/mL
C=CCNC(=O)N(C)[C@H]1C[C@@H](CC(=O)O)O[C@@H](/C=C/[C@H]2[C@H](C)[C@@H]2/C=C/[C@@H](C)/C=C(\C)[C@H]2CC=C(C)[C@@H](CC)O2)[C@@H]1O [I-q, (5S,6R)-5-(3-allyl-1-methylureido)-6-hydroxypolyangioic acid]	16 µg/mL	32 µg/mL	>8 µg/mL	12.69 µg/mL	>8 µg/mL	–	–	–	>8 µg/mL	>8 µg/mL	>8 µg/mL	–
CC[C@H]1O[C@@H](/C(C)=C/[C@H](C)/C=C/[C@H]2[C@@H](C)[C@@H]2/C=C/[C@@H]2O[C@H](CC(=O)O)C[C@H](N(C)Cc3ncc[nH]3)[C@H]2O)CC=C1C [I-y, (5S,6R)-5-(N-(2-imidazolyl)methyl-methylamino)-6-hydroxypolyangioic acid]	8.5 µg/mL	9 µg/mL	3.17 µg/mL	–	4.18 µg/mL	0.5 µg/mL (≈ 0.881 µM)	1 µg/mL (≈ 1.76 µM)	1 µg/mL (≈ 1.76 µM)	2.51 µg/mL	4 µg/mL	–	MIC H. capsulatum G217B (Histoplasma capsulatum): <0.19 µg/mL; MIC H. capsulatum GS20 (Histoplasma capsulatum): <0.19 µg/mL; MIC B. dermatitidis Gu (Blastomyces dermatitidis): 3.13 µg/mL (≈ 5.51 µM); MIC B. dermatitidis Kr (Blastomyces dermatitidis): >12.5 µg/mL; MIC B. dermatitidis V (Blastomyces dermatitidis): >12.5 µg/mL
CC[C@H]1O[C@@H](/C(C)=C/[C@H](C)/C=C/[C@H]2[C@@H](C)[C@@H]2/C=C/[C@@H]2O[C@H](CC(=O)O)C[C@H](N(C)C)[C@H]2O)CCC1C (stereo partly shown) [IV-b, 20,21-dihydro ambruticin VS-3]	0.88 µg/mL	0.44 µg/mL	2.51 µg/mL	2.51 µg/mL	4 µg/mL	–	–	–	1.25 µg/mL	1.41 µg/mL	1.41 µg/mL	–
